Results as given in publication PMC3926938 (Nature structural & molecular biology, 2012).
Values belong to the molecule of their own block, whether it stands above or below them. Square brackets hold non-standard residues; d marks the D form. Ends that are not written are not given here. Lys(Me3) = C[N+](C)(C)CCCC[C@H](N)C(=O)O

Columns and labels:
[1] = target: human PHF19-Tudor (residues 37–95) (human) (UniProt Q5T6S3); assay: NMR titration
human PHF19-Tudor = human PHF19-Tudor (Homo sapiens, UniProt Q5T6S3); assay: NMR chemical shift titration of Phf19-Tudor with histone H3 peptides; type: binding; settings: for Kd increased by a factor (alanine mutant peptide vs wild-type peptide): NMR, point mutations in histone H3 amino acids 37–41
[2] = target: human PHF19-Tudor (residues 37–95) (human, UniProt Q5T6S3 37-95); assay: NMR titration

Molecule: H3K36me2-containing peptide (NMR)
- Kd [1]: 295 µM

Molecule: 31-ATGGV-Kme3-K-37 [H3_31–36]
- binding to Phf19-Tudor (in words) (human PHF19-Tudor; NMR titration): unable to bind

Molecule: 34-GV-Kme3-APHRY-41 [H3 K37A]
- Kd increased by a factor (alanine mutant peptide vs wild-type peptide) (human PHF19-Tudor): 2.1

Molecule: 34GV-Kme3-KPHAY-41 [H3 R10A]
- Kd increased by a factor (alanine mutant peptide vs wild-type peptide) (human PHF19-Tudor): did not increase

Molecule: GV[Lys(Me3)]KPHRY [short H3K36me3 peptide (34-GV-Kme3-KPHRY-41; called the 7-mer histone H3_(35–41) in the results)]
- Kd [2]: 44 µM

Next, values leading:

- Kd [1]: 29 µM
Molecule: 11-mer H3K36me3 peptide (31-ATGGVKme3KPHRY-41)

- Kd increased by a factor (alanine mutant peptide vs wild-type peptide) (human PHF19-Tudor): 1.6
Molecule: 34-GV-Kme3-KPHRA-41 [H3 Y41A]
